Structures are written as SMILES.

For this experiment, the target named is T1, gamma secretase (Homo sapiens, UniProt P49768).
T1 construct: HEK293 cells stably expressing full length Amyloid Precursor Protein (APP); endogenous in cells; host or cells: HEK 293 cells stably expressing full length APP
Kind of experiment: GSM cell-based assay: Aβ 42 inhibition or reduction in HEK 293 cells over-expressing APP (sandwich ELISA). Conditions: approximate IC50; HEK293 cells stably expressing full length APP, 24 hours incubation, 10-point dose response starting at 10 μM. The text has this:
GSM cell-based assays were designed to measure the modulation of Aβ 42 from HEK 293 cells over-expressing APP.
Three simultaneous cell-based assays, namely Aβ 42 inhibition or reduction, Aβ 40 inhibition or reduction and a measurement of cell viability of the cells from which the Aβ 42/40 readout was obtained, together gave an interpretation of gamma secretase modulation (GSM). The assays measure Aβ 42 and Ab 40 from conditioned medium of test compound treated HEK 293 cells.
HEK293 cells stably expressing full length Amyloid Precursor Protein (APP) were plated at a density of 100K cells/well in 96 well plates (Costar). The cells were cultivated for 6 hours at 37° C. and 5% CO2 in DMEM supplemented with 10% FBS. The test compounds were then added to cells in 10-point dose response concentrations with the starting concentration being 10 μM. The compounds were diluted from stock solutions in DMSO and the final DMSO concentration of the test compounds on cells was 0.1%. After 24 hours of incubation with the test compounds the supernatant conditioned media was collected and the Aβ 42, Aβ 40 levels were determined using a sandwich ELISA. A cell viability test (CellTiter-Blue Cell Viability assay, Promega) on the cells from which the conditioned medium was harvested for Aβ 42 or Aβ 40 readouts gave an indication of cell survivability as a possible reason for false positive Aβ 42 or 40 reduction or inhibition readout. The IC50 of the compound (for either Aβ 42 or Aβ 40) was calculated from the percent of control or percent inhibition of Aβ 42 or Aβ 40 as a function of the concentration of the test compound.
The sandwich ELISA to detect Aβ 42 or Aβ 40 was performed in 96 well microtiter plates, which were pre-treated with goat anti-rabbit IgG (Pierce). The capture and detecting antibody pair that were used to detect Aβ 42 and Aβ 40 from cell supernatants were rabbit monoclonal Antibody 42 (RabMAb 42) and affinity purified polyclonal Antibody 40 pAB40 (Biosource) as capture antibodies and biotinylated 6E10 (Signet Labs Inc.) as detection antibody. The optimal concentration for RabMAb 42 was 1 μg/ml in Superblock/TBS (Pierce) that was supplemented with 0.05% Tween 20 (Sigma). The optimal concentration for the pAb40 antibody was 3 μg/ml in Superblock/TBS (Pierce) that was supplemented with 0.05% Tween 20 (Sigma). Optimal concentration for the detection antibody 6E10-biotinylated was 0.5 μg/ml in Superblock/TBS (Pierce) that had been supplemented with 2% normal goat serum and 2% normal mouse serum.
Cellular supernatants were incubated with the capture antibody for 16-20 hours at 4° C., followed by 3 wash steps in TBS-tween (0.05%). The detecting antibody incubation was for 3 hours at 4° C., again followed by the wash steps as described previously. The final readout of the ELISA is Time-Resolved Fluorescence (counts per minute) using Delfia reagents Streptavidin-Europium and Enhancement solutions (Perkin Elmer) and the EnVision Multilabel plate reader (Perkin Elmer).
(In an ELISA, binding on a coated surface is turned into a signal by an enzyme label.)
For `Cc1cc(-c2ccc(NC(=O)[C@H](C)c3cc(C(F)(F)F)cc(C(F)(F)F)c3)cc2)ccn1` [Cpd 1, (2R)-2-(3,5-bis(trifluoromethyl)phenyl)-N-(4-(2-methyl-4-pyridinyl)phenyl)-propanamide], inhibition was half-maximal at 256 nM (IC50). In the case of `Cc1cc(-c2ccc(NC(=O)Cc3cccc(Cl)c3)cc2)ccn1` [Cpd 8, 2-(3-chlorophenyl)-N-(4-(2-methyl-4-pyridinyl)phenyl)acetamide], the IC50 (in general, the concentration at which inhibition is half-maximal) came to 790 nM. In turn, `COc1ccc(Cl)cc1C(=O)Nc1ccc(-c2ccnc(C)c2)cc1` [Cpd 10] came in with an IC50 of 1380 nM. Compared with the last compound, the IC50 is about 1.7-fold higher. The value for `Cc1cc(-c2ccc(NC(=O)Cc3cccc4ccccc34)cc2)ccn1` [Cpd 15, N-(4-(2-methyl-4-pyridinyl)phenyl)-2-(1-naphthalenyl)acetamide] was 883 nM.

Turning to `Cc1cc(-c2ccc(NC(=O)Cc3ccc4c(c3)OCO4)cc2)ccn1` [Cpd 16, 2-(1,3-benzodioxol-5-yl)-N-(4-(2-methyl-4-pyridinyl)phenyl)acetamide], half-maximal inhibition (IC50) required 473 nM. In turn, `Cc1cc(-c2ccc(NC(=O)Cc3ccc(-c4ccccc4)cc3)cc2)ccn1` [Cpd 19, 2-(4-biphenylyl)-N-(4-(2-methyl-4-pyridinyl)phenyl)acetamide] gave an IC50 of 557 nM. In turn, `Cc1cc(-c2ccc(NC(=O)c3cn4c(C)cccc4n3)cc2)ccn1` [Cpd 20] displayed an IC50 of 2610 nM.

Compound `Cc1cc(-c2ccc(NC(=O)[C@@H](C)c3ccccc3)cc2)ccn1` [Cpd 21, (2S)-N-(4-(2-methyl-4-pyridinyl)phenyl)-2-phenylpropanamide] showed an IC50 of 1700 nM. As for `Cc1cc(-c2ccc(NC(=O)c3cc(C4CC4)on3)cc2)ccn1` [Cpd 22], the IC50 turned out to be 1580 nM. Turning to `Cc1cc(-c2ccc(NC(=O)C(C)c3cccc(Cl)n3)cc2)ccn1` (centres unmarked) [Cpd 24, 2-(6-chloro-2-pyridinyl)-N-(4-(2-methyl-4-pyridinyl)phenyl)propanamide], half-maximal inhibition (IC50) required 1970 nM.

In turn, `Cc1cc(-c2ccc(NC(=O)Cc3cncc(Br)c3)cc2)ccn1` [Cpd 27, 2-(5-bromo-3-pyridinyl)-N-(4-(2-methyl-4-pyridinyl)phenyl)acetamide] gave an IC50 of 2450 nM.

Take `Cc1cc(-c2ccc(NC(=O)c3cccc(Oc4ccccc4)c3)cc2)ccn1` [Cpd 31]: 854 nM corresponded to half-maximal inhibition (IC50).

Take `COc1cccc(C(=O)Nc2ccc(-c3ccnc(C)c3)cc2)c1` [Cpd 34]: 2930 nM corresponded to half-maximal inhibition (IC50). The value for `COC1CCCC(C(=O)Nc2ccc(-c3ccnc(C)c3)cc2)C1` (centres unmarked) [Cpd 35] was 4280 nM. The value for `COc1ccc(C(=O)Nc2ccc(-c3ccnc(C)c3)cc2)cc1Cl` [Cpd 37] was 567 nM; that for `Cc1cc(-c2ccc(NC(=O)Cc3ccc(C)s3)cc2)ccn1` [Cpd 38, N-(4-(2-methyl-4-pyridinyl)phenyl)-2-(5-methyl-2-thiophenyl)acetamid] was 2370 nM. The value for `Cc1cc(-c2ccc(NC(=O)C(c3ccccc3)C(C)C)cc2)ccn1` (centres unmarked) [Cpd 39, 3-methyl-N-(4-(2-methyl-4-pyridinyl)-phenyl)-2-phenylbutanamide] was 474 nM; that for `Cc1cc(-c2ccc(NC(=O)c3cccc(N(C)C)c3)cc2)ccn1` [Cpd 46] was more than 10000 nM.

The compound `Cc1cc(-c2ccc(NC(=O)C(C)(C)c3ccc(Cl)cc3)cc2)ccn1` [Cpd 48, 2-(4-chlorophenyl)-2-methyl-N-(4-(2-methyl-4-pyridinyl)phenyl)propanamide] registered an IC50 of more than 10000 nM. `Cc1cc(-c2ccc(NC(=O)c3cc(Cl)nc(Cl)c3)cc2)ccn1` [Cpd 51] came in with an IC50 of more than 10000 nM. The value for `Cc1cc(-c2ccc(NC(=O)C3CCCO3)cc2)ccn1` (centres unmarked) [Cpd 52] was more than 10000 nM.

Turning to `Cc1cc(-c2ccc(NC(=O)C3CC(=O)N(c4ccccc4)C3)cc2)ccn1` (centres unmarked) [Cpd 53], the IC50 is more than 10000 nM.

As to `Cc1cc(-c2ccc(NC(=O)C3CC3)cc2)ccn1` [Cpd 54], the IC50 is more than 10000 nM. The compound `CC(=O)N1CCC(C(=O)Nc2ccc(-c3ccnc(C)c3)cc2)CC1` [Cpd 55] registered an IC50 of more than 10000 nM.

On to `Cc1cc(-c2ccc(NC(=O)C3CC(=O)N(C4CCCCC4)C3)cc2)ccn1` (centres unmarked) [Cpd 60], for which the IC50 is more than 10000 nM.

As for `Cc1cc(-c2ccc(NC(=O)C(C)c3ccc4c(c3)[nH]c3ccc(Cl)cc34)cc2)ccn1` (centres unmarked) [Cpd 65, 2-(6-chloro-9H-carbazol-2-yl)-N-(4-(2-methyl-4-pyridinyl)phenyl)propanamide], the 50% inhibitory concentration (IC50) worked out at 108 nM. In turn, `COc1ccc2cc([C@@H](C)C(=O)Nc3ccc(-c4ccnc(C)c4)cc3)ccc2c1` [Cpd 66, (2R)-2-(6-methoxy-2-naphthalenyl)-N-(4-(2-methyl-4-pyridinyl)phenyl)propanamide] gave an IC50 of 205 nM. In the case of `Cc1cc(-c2ccc(NC(=O)Cc3n[nH]c4ccc(Br)cc34)cc2)ccn1` [Cpd 79, 2-(5-bromo-1H-indazol-3-yl)-N-(4-(2-methyl-4-pyridinyl)phenyl)acetamide] it was 1180 nM; in that of `Cc1cc(-c2ccc(NC(=O)c3cc(Cl)cc(Cl)c3)c(F)c2)ccn1` [Cpd 86], more than 10000 nM; in that of `Cc1cc(-c2ccc(NC(=O)Cc3cc(C(F)(F)F)cc(C(F)(F)F)c3)cc2)ccn1` [Cpd 87, 2-(3,5-bis(trifluoromethyl)phenyl)-N-(4-(2-methyl-4-pyridinyl)phenyl)acetamide], 461 nM. In the case of `Cc1cc(-c2ccc(NC(=O)Cc3ccccn3)cc2)ccn1` [Cpd 88, N-(4-(2-methyl-4-pyridinyl)phenyl)-2-(2-pyridinyl)acetamide] it was more than 10000 nM; in that of `Cc1cc(-c2ccc(NC(=O)Cc3c(C)noc3C)cc2)ccn1` [Cpd 89, 2-(3,5-dimethyl-4-isoxazolyl)-N-(4-(2-methyl-4-pyridinyl)phenyl)acetamide], more than 10000 nM. In turn, `Cc1cc(-c2ccc(NC(=O)c3ccccc3-c3ccccc3)cc2)ccn1` [Cpd 91] had an IC50 of more than 10000 nM.

As for `Cc1cccc([C@H](CC(C)C)C(=O)Nc2ccc(-c3ccnc(C)c3)cc2)c1` [Cpd 105, (2S)-4-methyl-2-(3-methylphenyl)-N-(4-(2-methyl-4-pyridinyl)phenyl)pentanamide], half-maximal inhibition (IC50) required 1730 nM. This counts as single-digit micromolar. The value for `Cc1cc(-c2ccc(NC(=O)Cc3c(F)cccc3Cl)cc2)ccn1` [Cpd 106, 2-(2-chloro-6-fluorophenyl)-N-(4-(2-methyl-4-pyridinyl)phenyl)acetamide] was more than 10000 nM; that for `Cc1cc(-c2ccc(NC(=O)Cc3ccc(OC(F)(F)F)cc3)cc2)ccn1` [Cpd 110, N-(4-(2-methyl-4-pyridinyl)phenyl)-2-(4-(trifluoromethoxy)phenyl)acetamide] was 3270 nM. Regarding `Cc1cc(-c2ccc(NC(=O)Cc3ccc(OCc4ccccc4)cc3)cc2)ccn1` [Cpd 111, 2-(4-(benzyloxy)phenyl)-N-(4-(2-methyl-4-pyridinyl)phenyl)acetamide], the IC50 was found to be 3300 nM.

In turn, `Cc1cc(-c2ccc(NC(=O)Cc3ccc(Oc4ccccc4)cc3)cc2)ccn1` [Cpd 112] gave a concentration for half-maximal inhibition (IC50) of 5780 nM.

In the case of `Cc1cc(-c2ccc(NC(=O)Cc3ccccc3OCc3ccccc3)cc2)ccn1` [Cpd 113, 2-(2-(benzyloxy)phenyl)-N-(4-(2-methyl-4-pyridinyl)phenyl)acetamide], the IC50 is more than 10000 nM. Regarding `Cc1cc(-c2ccc(NC(=O)Cc3ccc4c(c3)CCO4)cc2)ccn1` [Cpd 116, 2-(2,3-dihydro-1-benzofuran-5-yl)-N-(4-(2-methyl-4-pyridinyl)phenyl)acetamide], half-maximal inhibition (IC50) required 4140 nM. As for `Cc1cc(-c2ccc(NC(=O)C3CCc4ccccc43)cc2)ccn1` (centres unmarked) [Cpd 117], the IC50 was found to be 3860 nM.
